From the supplement of paper PMC10307832

Assays:
Assay in all cases: relative viability (nuclei count vs DMSO), 5 days (fraction); higher = more cells survive
[1] = compound: OCc1c[nH]c2ccccc12 [Indole-3-carbinol] + Cc1cc(Nc2cc(N3CCN(C)CC3)nc(Sc3ccc(NC(=O)C4CC4)cc3)n2)n[nH]1 [Tozasertib] (partner 0.1 µM)
Outline: (§1)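 Relative viability is defined as nuclei in treated wells over nuclei in vehicle wells. Duplicate plates were run and medians reported. Lung cancer cell lines in 1536-well plates were dosed by pin tool one day after seeding, with one drug or with a fixed anchor-drug dose plus five library-drug doses (not always all listed) in √10 steps, and nuclei were counted after 5 days.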

[2] = compound: OCc1c[nH]c2ccccc12 [Indole-3-carbinol] + O=C(CCCCCCC(=O)Nc1ccccc1)NO [Vorinostat] (partner 1 µM)
Outline: as §1

[3] = compound: OCc1c[nH]c2ccccc12 [Indole-3-carbinol] + Cc1nc(Nc2ncc(C(=O)Nc3c(C)cccc3Cl)s2)cc(N2CCN(CCO)CC2)n1 [Dasatinib] (partner 0.075 µM)
Outline: as §1

[4] = compound: OCc1c[nH]c2ccccc12 [Indole-3-carbinol] + C[C@]1(O)C[C@@H](c2nc(-c3ccc4ccc(-c5ccccc5)nc4c3)c3c(N)nccn32)C1 [Linsitinib] (partner 1 µM)
Outline: as §1

[5] = compound: OCc1c[nH]c2ccccc12 [Indole-3-carbinol] + O=C(c1cc(Cc2n[nH]c(=O)c3ccccc23)ccc1F)N1CCN(C(=O)C2CC2)CC1 [Olaparib] (partner 8 µM)
Outline: as §1

| Cell Line | relative viability ([1]; first compound 0.253 µM) | relative viability ([1]; first compound 0.8 µM) | relative viability ([1]; first compound 2.53 µM) | relative viability ([1]; first compound 8 µM) | relative viability ([2]; first compound 0.253 µM) | relative viability ([2]; first compound 0.8 µM) | relative viability ([2]; first compound 2.53 µM) | relative viability ([2]; first compound 8 µM) | relative viability ([3]; first compound 0.253 µM) | relative viability ([3]; first compound 0.8 µM) | relative viability ([3]; first compound 2.53 µM) | relative viability ([3]; first compound 8 µM) | relative viability ([4]; first compound 0.253 µM) | relative viability ([4]; first compound 0.8 µM) | relative viability ([4]; first compound 2.53 µM) | relative viability ([4]; first compound 8 µM) | relative viability ([5]; first compound 0.253 µM) | relative viability ([5]; first compound 0.8 µM) | relative viability ([5]; first compound 2.53 µM) | relative viability ([5]; first compound 8 µM) |
| --- | --- | --- | --- | --- | --- | --- | --- | --- | --- | --- | --- | --- | --- | --- | --- | --- | --- | --- | --- | --- |
| HCC-366 | 0.103 | 0.125 | 0.0939 | 0.196 | 0.355 | 0.331 | 0.351 | 0.281 | 0.626 | 0.721 | 0.724 | 0.601 | 0.663 | 0.369 | 0.615 | 0.705 | 0.459 | 0.386 | 0.35 | 0.309 |
| HCC-827 | 0.4 | 0.398 | 0.429 | 0.383 | 0.767 | 0.903 | 0.896 | 0.839 | 0.338 | 0.315 | 0.316 | 0.357 | 1.04 | 1.01 | 0.962 | 0.942 | 0.67 | 0.621 | 0.719 | 0.61 |
| HOP-62 | 0.365 | 0.432 | 0.391 | 0.332 | 0.674 | 0.534 | 0.714 | 0.582 | 0.701 | 0.693 | 0.719 | 0.651 | 1.03 | 1.06 | 1.14 | 0.937 | 0.541 | 0.368 | 0.525 | 0.399 |
| LC-2-ad | 0.404 | 0.417 | 0.537 | 0.468 | 0.765 | 0.742 | 0.696 | 0.662 | 0.657 | 0.735 | 0.589 | 0.595 | 0.827 | 0.791 | 0.806 | 0.783 | 0.768 | 0.737 | 0.696 | 0.656 |
| LCLC-97TM1 | 0.324 | 0.299 | 0.235 | 0.251 | 0.858 | 1.01 | 0.818 | 0.646 | 0.835 | 0.949 | 0.944 | 0.908 | 0.163 | 0.159 | 0.178 | 0.174 | 0.38 | 0.552 | 0.489 | 0.265 |
| LCLC-103H | 0.499 | 0.554 | 0.538 | 0.433 | 0.894 | 0.736 | 0.829 | 0.706 | 0.416 | 0.489 | 0.428 | 0.441 | 1.13 | 1.04 | 1.12 | 0.972 | 0.732 | 0.734 | 0.763 | 0.633 |
| LK-2 | 0.162 | 0.167 | 0.194 | 0.17 | 0.193 | 0.295 | 0.333 | 0.448 | 0.262 | 0.297 | 0.299 | 0.273 | 0.627 | 0.572 | 0.47 | 0.536 | 0.877 | 0.675 | 0.808 | 0.713 |
| LOU-NH91 | 0.65 | 0.693 | 0.749 | 0.634 | 0.924 | 0.865 | 0.961 | 0.945 | 0.621 | 0.573 | 0.585 | 0.535 | 1.01 | 0.899 | 0.937 | 0.943 | 0.916 | 0.872 | 0.974 | 0.893 |
| LU99A | 0.224 | 0.317 | 0.315 | 0.257 | 0.504 | 0.514 | 0.59 | 0.455 | 0.504 | 0.587 | 0.515 | 0.485 | 0.501 | 0.556 | 0.428 | 0.536 | 0.256 | 0.299 | 0.23 | 0.268 |
| LXF-289 | 0.228 | 0.21 | 0.289 | 0.199 | 0.836 | 0.795 | 0.733 | 0.76 | 0.256 | 0.229 | 0.258 | 0.203 | 0.977 | 1.03 | 0.996 | 0.892 | 1.24 | 1.09 | 1.09 | 1.08 |
| NCI-H23 | 0.351 | 0.359 | 0.345 | 0.377 | 0.516 | 0.615 | 0.704 | 0.587 | 0.793 | 1.01 | 0.936 | 0.675 | 0.668 | 0.649 | 0.722 | 0.485 | 0.316 | 0.353 | 0.3 | 0.276 |
| NCI-H322M | 0.476 | 0.465 | 0.458 | 0.472 | 0.713 | 0.8 | 0.902 | 0.779 | 0.239 | 0.245 | 0.237 | 0.255 | 0.9 | 0.899 | 0.974 | 0.839 | 0.779 | 0.692 | 0.773 | 0.725 |
| NCI-H522 | 0.63 | 0.525 | 0.567 | 0.538 | 1.1 | 0.694 | 0.808 | 0.95 | 0.806 | 0.961 | 0.818 | 0.796 | – | – | – | – | 0.657 | 0.564 | 0.663 | 0.608 |
| NCI-H1650 | 0.371 | – | 0.364 | 0.473 | 0.535 | 0.623 | 0.657 | 0.676 | 0.335 | – | 0.324 | 0.304 | – | – | – | – | 0.736 | 0.889 | 0.92 | 0.768 |
| NCI-H1703 | – | – | – | – | – | – | – | – | – | – | – | – | 0.786 | 0.413 | 0.665 | 0.636 | 0.389 | 0.557 | 0.389 | 0.553 |
| NCI-H1792 | – | – | – | – | – | – | – | – | 0.823 | 1.05 | 0.845 | 0.737 | 0.499 | 0.37 | 0.506 | 0.47 | 0.612 | 0.532 | 0.553 | 0.3 |
| NCI-H2170 | 0.703 | 0.712 | 0.79 | 0.717 | 0.906 | 0.832 | 0.851 | 0.778 | 0.588 | 0.644 | 0.703 | 0.594 | – | – | – | – | 0.633 | 0.617 | 0.597 | 0.586 |
| NCI-H2342 | 0.516 | 0.575 | 0.453 | 0.405 | 0.802 | 0.743 | 0.903 | 0.712 | 0.355 | 0.323 | 0.317 | 0.285 | – | – | – | – | 0.452 | 0.447 | 0.508 | 0.512 |
